Laboratory results taken from the kinase profiling compilation of Christmann-Franck et al. (2016).

Experiments:
Experiment in all cases: KINOMEscan competition binding
Conditions in all cases: compound 10.0 µM
[1] = target: TAOK1 (human) (UniProt Q7L7X3)
[2] = target: EPHA5 (human) (UniProt P54756)
[3] = target: CDKL1 (human) (UniProt Q00532)
[4] = target: LATS1 (human) (UniProt O95835)
[5] = target: AKT2 (human) (UniProt P31751)
[6] = target: VRK2 (human) (UniProt Q86Y07)
[7] = target: PIK3CA (human) (UniProt P42336)
[8] = target: RPS6KA5 KD1 (human) (UniProt O75582)
[9] = target: NEK7 (human) (UniProt Q8TDX7)
NEK7 (human), sequence (Q8TDX7 whole entry, looked up): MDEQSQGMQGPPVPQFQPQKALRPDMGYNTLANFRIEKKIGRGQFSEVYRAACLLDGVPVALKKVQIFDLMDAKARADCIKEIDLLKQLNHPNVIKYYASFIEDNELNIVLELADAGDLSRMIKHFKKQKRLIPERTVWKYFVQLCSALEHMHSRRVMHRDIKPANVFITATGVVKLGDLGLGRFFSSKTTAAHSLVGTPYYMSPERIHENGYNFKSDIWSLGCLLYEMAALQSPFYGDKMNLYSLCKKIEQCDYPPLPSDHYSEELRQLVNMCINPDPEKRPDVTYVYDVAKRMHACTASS

[10] = target: PAK3 (human) (UniProt O75914)
[11] = target: MAP3K10 (human) (UniProt Q02779)
[12] = target: BRSK2 (human) (UniProt Q8IWQ3)
[13] = target: DAPK1 (human) (UniProt P53355)
DAPK1 (human), sequence (P53355 whole entry, looked up): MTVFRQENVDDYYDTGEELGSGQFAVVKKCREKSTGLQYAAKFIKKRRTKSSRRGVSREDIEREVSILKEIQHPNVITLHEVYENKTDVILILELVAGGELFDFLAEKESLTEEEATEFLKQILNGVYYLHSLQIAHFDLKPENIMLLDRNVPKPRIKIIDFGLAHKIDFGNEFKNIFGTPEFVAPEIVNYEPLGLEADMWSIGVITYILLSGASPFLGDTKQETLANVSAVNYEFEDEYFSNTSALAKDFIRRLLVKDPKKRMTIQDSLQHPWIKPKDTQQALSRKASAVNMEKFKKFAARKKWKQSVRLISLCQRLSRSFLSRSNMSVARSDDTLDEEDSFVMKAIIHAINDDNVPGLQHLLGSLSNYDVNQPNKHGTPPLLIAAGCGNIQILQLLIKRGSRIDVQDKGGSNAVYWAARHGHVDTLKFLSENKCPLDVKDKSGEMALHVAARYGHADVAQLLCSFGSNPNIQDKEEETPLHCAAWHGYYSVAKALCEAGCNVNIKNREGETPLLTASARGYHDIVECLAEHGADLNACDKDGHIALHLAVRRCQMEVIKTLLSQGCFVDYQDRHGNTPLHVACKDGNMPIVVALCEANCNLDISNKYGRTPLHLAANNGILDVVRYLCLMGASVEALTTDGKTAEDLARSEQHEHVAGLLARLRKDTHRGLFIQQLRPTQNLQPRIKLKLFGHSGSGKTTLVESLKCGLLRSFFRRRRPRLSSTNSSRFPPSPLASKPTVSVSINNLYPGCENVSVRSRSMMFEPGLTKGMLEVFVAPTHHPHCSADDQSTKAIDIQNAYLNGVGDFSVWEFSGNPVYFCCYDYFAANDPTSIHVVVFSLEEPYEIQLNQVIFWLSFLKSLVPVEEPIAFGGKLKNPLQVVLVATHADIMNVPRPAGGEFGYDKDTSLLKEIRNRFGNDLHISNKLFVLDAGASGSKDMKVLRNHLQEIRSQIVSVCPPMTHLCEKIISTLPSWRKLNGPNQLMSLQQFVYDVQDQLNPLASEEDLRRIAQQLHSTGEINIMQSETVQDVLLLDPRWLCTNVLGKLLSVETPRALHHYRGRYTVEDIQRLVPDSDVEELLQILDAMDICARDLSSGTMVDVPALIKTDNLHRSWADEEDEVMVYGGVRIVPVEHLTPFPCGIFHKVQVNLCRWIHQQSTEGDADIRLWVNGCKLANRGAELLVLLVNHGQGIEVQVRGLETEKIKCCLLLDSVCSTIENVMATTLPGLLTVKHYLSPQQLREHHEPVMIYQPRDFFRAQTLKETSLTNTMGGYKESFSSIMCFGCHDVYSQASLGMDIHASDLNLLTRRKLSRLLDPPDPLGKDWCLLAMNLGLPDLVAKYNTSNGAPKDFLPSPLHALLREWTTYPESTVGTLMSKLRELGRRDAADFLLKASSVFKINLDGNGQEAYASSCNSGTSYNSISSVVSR

[14] = target: RIOK2 (human) (UniProt Q9BVS4)
[15] = target: STK4 (human) (UniProt Q13043)
[16] = target: PTK6 (human) (UniProt Q13882)
[17] = target: CDK4 CCND3 (human) (UniProt P11802+P30281)
[18] = target: RPS6KA4 KD1 (human) (UniProt O75676)
[19] = target: RPS6KA3 KD1 (human) (UniProt P51812)
RPS6KA3 KD1 (human), sequence (P51812 whole entry, looked up): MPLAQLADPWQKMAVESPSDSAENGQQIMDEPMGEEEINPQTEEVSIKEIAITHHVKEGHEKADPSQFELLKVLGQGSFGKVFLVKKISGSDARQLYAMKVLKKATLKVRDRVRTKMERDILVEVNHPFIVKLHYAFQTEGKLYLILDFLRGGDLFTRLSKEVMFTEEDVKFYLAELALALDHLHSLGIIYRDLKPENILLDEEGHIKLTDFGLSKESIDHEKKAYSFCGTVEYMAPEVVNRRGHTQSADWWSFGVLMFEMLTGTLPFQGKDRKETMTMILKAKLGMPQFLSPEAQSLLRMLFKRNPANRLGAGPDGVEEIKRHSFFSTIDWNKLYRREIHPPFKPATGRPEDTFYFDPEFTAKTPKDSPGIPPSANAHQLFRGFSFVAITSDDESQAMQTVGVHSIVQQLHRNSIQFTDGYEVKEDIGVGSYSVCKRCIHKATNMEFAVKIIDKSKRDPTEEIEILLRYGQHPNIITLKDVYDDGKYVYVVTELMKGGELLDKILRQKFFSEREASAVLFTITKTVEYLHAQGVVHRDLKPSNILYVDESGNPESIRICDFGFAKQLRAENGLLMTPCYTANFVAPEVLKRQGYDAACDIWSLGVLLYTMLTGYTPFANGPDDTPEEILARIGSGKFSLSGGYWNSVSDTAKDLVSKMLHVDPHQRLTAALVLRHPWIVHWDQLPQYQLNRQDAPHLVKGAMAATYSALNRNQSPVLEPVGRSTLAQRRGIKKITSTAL

[20] = target: PRKCQ (human) (UniProt Q04759)
[21] = target: PIP4K2B (human) (UniProt P78356)
[22] = target: MAP4K4 (human) (UniProt O95819)
[23] = target: DYRK1A (human) (UniProt Q13627)
[24] = target: PIK3C2B (human) (UniProt O00750)
[25] = target: NTRK2 (human) (UniProt Q16620)
[26] = target: NEK9 (human) (UniProt Q8TD19)
[27] = target: ITK (human) (UniProt Q08881)
[28] = target: CDK17 (human) (UniProt Q00537)
CDK17 (human), sequence (Q00537 whole entry, looked up): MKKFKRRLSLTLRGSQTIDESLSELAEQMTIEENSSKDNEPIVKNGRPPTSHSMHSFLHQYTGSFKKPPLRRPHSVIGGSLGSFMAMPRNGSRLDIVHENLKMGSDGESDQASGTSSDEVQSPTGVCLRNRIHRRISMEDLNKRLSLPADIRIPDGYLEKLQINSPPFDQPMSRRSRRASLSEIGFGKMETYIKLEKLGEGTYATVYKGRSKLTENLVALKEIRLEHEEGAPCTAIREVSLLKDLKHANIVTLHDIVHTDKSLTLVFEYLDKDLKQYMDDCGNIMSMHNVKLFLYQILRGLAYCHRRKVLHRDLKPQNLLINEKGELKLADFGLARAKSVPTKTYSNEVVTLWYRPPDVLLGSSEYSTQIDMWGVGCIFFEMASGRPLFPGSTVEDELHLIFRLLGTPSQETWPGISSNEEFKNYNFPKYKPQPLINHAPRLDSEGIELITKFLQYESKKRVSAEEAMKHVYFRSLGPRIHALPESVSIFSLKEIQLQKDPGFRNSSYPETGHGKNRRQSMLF

[29] = target: CSNK1G1 (human) (UniProt Q9HCP0)
[30] = target: NEK2 (human) (UniProt P51955)
[31] = target: CAMKK2 (human) (UniProt Q96RR4)
[32] = target: KDR (human) (UniProt P35968)
KDR (human), sequence (P35968 whole entry, looked up): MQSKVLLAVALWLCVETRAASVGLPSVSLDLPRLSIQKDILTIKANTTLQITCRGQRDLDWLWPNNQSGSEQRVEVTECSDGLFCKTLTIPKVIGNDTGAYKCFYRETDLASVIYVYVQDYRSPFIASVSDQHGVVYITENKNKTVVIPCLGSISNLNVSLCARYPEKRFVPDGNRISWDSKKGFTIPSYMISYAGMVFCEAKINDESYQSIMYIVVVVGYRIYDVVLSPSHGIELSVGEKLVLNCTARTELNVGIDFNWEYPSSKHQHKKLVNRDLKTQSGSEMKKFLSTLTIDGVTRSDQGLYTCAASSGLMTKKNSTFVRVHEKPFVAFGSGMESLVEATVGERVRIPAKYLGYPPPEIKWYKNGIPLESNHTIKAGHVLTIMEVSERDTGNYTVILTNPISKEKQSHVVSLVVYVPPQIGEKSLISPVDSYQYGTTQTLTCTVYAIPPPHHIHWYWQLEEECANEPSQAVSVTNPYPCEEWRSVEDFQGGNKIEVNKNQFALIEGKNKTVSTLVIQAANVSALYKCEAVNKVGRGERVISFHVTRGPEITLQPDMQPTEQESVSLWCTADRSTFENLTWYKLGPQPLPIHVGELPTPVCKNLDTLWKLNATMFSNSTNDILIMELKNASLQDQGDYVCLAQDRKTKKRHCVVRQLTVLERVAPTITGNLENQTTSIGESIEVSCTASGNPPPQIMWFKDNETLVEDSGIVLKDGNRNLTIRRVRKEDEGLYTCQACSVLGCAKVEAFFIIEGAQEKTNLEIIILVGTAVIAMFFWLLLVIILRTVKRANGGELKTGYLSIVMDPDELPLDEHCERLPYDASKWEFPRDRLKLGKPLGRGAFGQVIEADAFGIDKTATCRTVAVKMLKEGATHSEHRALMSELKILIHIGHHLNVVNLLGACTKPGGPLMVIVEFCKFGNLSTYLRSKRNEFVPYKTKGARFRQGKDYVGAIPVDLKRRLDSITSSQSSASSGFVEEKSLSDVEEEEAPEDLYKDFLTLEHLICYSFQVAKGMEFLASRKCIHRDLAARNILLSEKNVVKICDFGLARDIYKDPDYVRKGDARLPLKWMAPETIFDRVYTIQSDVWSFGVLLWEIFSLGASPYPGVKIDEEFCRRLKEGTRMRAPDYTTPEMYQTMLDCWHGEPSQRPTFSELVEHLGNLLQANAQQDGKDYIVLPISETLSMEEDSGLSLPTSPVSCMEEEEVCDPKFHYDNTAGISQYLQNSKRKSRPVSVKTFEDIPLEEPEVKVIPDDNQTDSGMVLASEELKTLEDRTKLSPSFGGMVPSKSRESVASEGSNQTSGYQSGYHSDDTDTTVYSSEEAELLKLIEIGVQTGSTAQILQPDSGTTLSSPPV

[33] = target: DMPK (human) (UniProt Q09013)
[34] = target: CDC42BPG (human) (UniProt Q6DT37)
[35] = target: ANKK1 (human) (UniProt Q8NFD2)
[36] = target: PLK3 (human) (UniProt Q9H4B4)
PLK3 (human), sequence (Q9H4B4 whole entry, looked up): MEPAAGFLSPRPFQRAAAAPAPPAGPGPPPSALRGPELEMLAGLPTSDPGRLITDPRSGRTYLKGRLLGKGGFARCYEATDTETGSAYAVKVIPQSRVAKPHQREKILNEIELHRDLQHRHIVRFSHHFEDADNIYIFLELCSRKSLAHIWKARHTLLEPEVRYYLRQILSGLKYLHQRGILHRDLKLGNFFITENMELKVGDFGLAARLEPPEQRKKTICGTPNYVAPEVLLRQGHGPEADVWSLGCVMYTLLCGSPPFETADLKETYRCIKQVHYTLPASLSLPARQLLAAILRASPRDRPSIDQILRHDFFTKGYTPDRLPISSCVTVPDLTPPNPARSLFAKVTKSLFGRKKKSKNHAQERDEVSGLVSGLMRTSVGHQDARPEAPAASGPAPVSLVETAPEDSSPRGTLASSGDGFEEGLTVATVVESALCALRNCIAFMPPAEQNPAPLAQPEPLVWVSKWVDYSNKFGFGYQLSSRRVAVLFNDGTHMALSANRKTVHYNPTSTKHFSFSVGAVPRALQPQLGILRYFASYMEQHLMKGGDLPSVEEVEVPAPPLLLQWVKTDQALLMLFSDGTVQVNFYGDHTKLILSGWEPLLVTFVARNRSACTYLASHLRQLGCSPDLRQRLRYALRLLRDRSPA

[37] = target: RPS6KA2 KD1 (human) (UniProt Q15349)
[38] = target: MELK (human) (UniProt Q14680)
[39] = target: CAMK2G (human) (UniProt Q13555)
[40] = target: CASK (human) (UniProt O14936)

Compound	kinase still bound, per cent of control [1]	kinase still bound, per cent of control [2]	kinase still bound, per cent of control [3]	kinase still bound, per cent of control [4]	kinase still bound, per cent of control [5]	kinase still bound, per cent of control [6]	kinase still bound, per cent of control [7]	kinase still bound, per cent of control [8]	kinase still bound, per cent of control [9]	kinase still bound, per cent of control [10]	kinase still bound, per cent of control [11]	kinase still bound, per cent of control [12]	kinase still bound, per cent of control [13]	kinase still bound, per cent of control [14]	kinase still bound, per cent of control [15]	kinase still bound, per cent of control [16]	kinase still bound, per cent of control [17]	kinase still bound, per cent of control [18]	kinase still bound, per cent of control [19]	kinase still bound, per cent of control [20]	also measured
COc1cc2ncnc(-n3nc(-c4ccccn4)nc3N)c2cc1OC	3.2%	19%	21%	100%	42%	9.8%	38%	84%	1.4%	12%	62%	14%	3.6%	2%	61%	51%	60%	9.9%	2.8%	100%	kinase still bound, per cent of control [21]: 44%; kinase still bound, per cent of control [22]: 69%; kinase still bound, per cent of control [23]: 0.1%; kinase still bound, per cent of control [24]: 0.35%; kinase still bound, per cent of control [25]: 47%; kinase still bound, per cent of control [26]: 2.2%; kinase still bound, per cent of control [27]: 100%; kinase still bound, per cent of control [28]: 59%; kinase still bound, per cent of control [29]: 33%; kinase still bound, per cent of control [30]: 57%; kinase still bound, per cent of control [31]: 9.1%; kinase still bound, per cent of control [32]: 52%; kinase still bound, per cent of control [33]: 100%; kinase still bound, per cent of control [34]: 96%; kinase still bound, per cent of control [35]: 12%; kinase still bound, per cent of control [36]: 33%; kinase still bound, per cent of control [37]: 76%; kinase still bound, per cent of control [38]: 9.2%; kinase still bound, per cent of control [39]: 56%; kinase still bound, per cent of control [40]: 26%
COc1cc(C(=O)N2CCC(N3CCN(C)CC3)CC2)ccc1Nc1ncc2c(n1)N(C)c1ccccc1C(=O)N2C	28%	95%	78%	100%	100%	99%	74%	96%	100%	83%	100%	64%	73%	100%	100%	58%	100%	100%	77%	100%	kinase still bound, per cent of control [21]: 100%; kinase still bound, per cent of control [22]: 85%; kinase still bound, per cent of control [23]: 99%; kinase still bound, per cent of control [24]: 100%; kinase still bound, per cent of control [25]: 100%; kinase still bound, per cent of control [26]: 100%; kinase still bound, per cent of control [27]: 82%; kinase still bound, per cent of control [28]: 83%; kinase still bound, per cent of control [29]: 100%; kinase still bound, per cent of control [30]: 100%; kinase still bound, per cent of control [31]: 31%; kinase still bound, per cent of control [32]: 84%; kinase still bound, per cent of control [33]: 100%; kinase still bound, per cent of control [34]: 100%; kinase still bound, per cent of control [35]: 100%; kinase still bound, per cent of control [36]: 51%; kinase still bound, per cent of control [37]: 83%; kinase still bound, per cent of control [38]: 100%; kinase still bound, per cent of control [39]: 47%; kinase still bound, per cent of control [40]: 85%
